Measured values taken from PMC10615754 (Molecular Psychiatry, 2023).

Assays:
[1] = biological target: T1, DAT (Mus musculus, UniProt Q61327); experiment: Competition binding of [3H]WIN35,428 to DAT in mouse striatal homogenates
T1 construct: from tissue; host or cells: striatum of male SERT+/- mice
Experimental: (§1) Thus, in the current experiments, male constitutive SERT+/- mice weighing 25-30g were used, 3 per assay. […] Mice were euthanized by cervical dislocation without use of anesthesia to prevent anesthetic-induced attenuation of transporter binding sites. Whole hippocampi or striatum were harvested and placed in 30 ml of ice-cold buffer specific to each assay.
(§2) Tissue Collection and Preparation: Mice were humanely euthanized by cervical dislocation and decapitated without anesthesia to collect fresh brain tissues without compromising transporter binding properties. Striatum from each mouse were placed in a round 50 ml polycarbonate tube (Nalge Nunc, Rochester, NY, USA) containing 30 mM sodium phosphate and 0.32 M sucrose for DAT binding as in Reith and Coffey^16. […] All tissues were homogenized at 26,000 RPM for 1 min with a Polytron tissue homogenizer (Brinkman Instruments, Westbury, NY, USA). […] The supernate was discarded, and the pellet re-suspended in 25 ml buffer on ice using a Potter Elvehjem 10 ml glass and teflon homogenizer. The homogenate was re-centrifuged for 10 min at 36,000 x g.
The final pellet was re-suspended in 30 mM sodium phosphate and 0.32 M sucrose pH 7.4 at 4°C, and binding assays were carried out in duplicate for 2 hours at 4°C.
Labeled homogenates were captured through filtration under vacuum onto glass fiber filters pre-soaked in 0.5% polyethyleneimine (Sigma) on a Brandel tissue harvester (Gaithersburg, MD). Filters were washed twice more with 4 ml of buffer.
(§3) Data Analysis: Binding data were analyzed using non-linear regression curve fitting with GraphPad Prism (La Jolla, CA, USA).

[2] = biological target: T2, hOCT3 (Homo sapiens, UniProt O75751); experiment: Inhibition of [3H]MPP+ uptake into HEK293 cells stably expressing hOCT3; format: cell-based
T2 construct: expressed in transfected cells
T2 sequence (O75751 1-556): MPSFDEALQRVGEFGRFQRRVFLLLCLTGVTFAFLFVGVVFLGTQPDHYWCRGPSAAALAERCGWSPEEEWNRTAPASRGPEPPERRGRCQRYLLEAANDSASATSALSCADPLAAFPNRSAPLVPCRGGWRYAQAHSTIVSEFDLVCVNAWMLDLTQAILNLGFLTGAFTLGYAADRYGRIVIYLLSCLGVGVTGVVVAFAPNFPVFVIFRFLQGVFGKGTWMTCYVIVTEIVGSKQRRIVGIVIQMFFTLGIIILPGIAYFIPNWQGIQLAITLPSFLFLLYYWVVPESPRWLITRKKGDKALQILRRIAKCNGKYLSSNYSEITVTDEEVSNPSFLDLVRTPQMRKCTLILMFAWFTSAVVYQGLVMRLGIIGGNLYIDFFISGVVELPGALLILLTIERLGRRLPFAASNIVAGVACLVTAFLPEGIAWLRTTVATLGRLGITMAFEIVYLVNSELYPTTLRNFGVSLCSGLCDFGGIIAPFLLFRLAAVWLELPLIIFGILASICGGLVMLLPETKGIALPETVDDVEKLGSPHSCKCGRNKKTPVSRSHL
Experimental: Mechanically detached HEK293 cells grown to confluence in 4-5 ml flasks were suspended in 3-4 ml of media in a 15 ml polypropylene conical tube.
Cells were harvested on a Brandel 48 well harvester by vacuum filtration onto glass fiber filter strips (Brandel, Gaithersburg, MD, USA) pre-soaked in a 1% polyethalineamine saline solution. […] Protein concentration of the cell suspension was determined after solubilization in 1N NaOH against known concentrations of bovine serum albumen with Bradford reagent as for mouse brain homogenates.
Data Analysis: Experiments were performed in triplicate. Percent of total binding was calculated, and uptake kinetics determined with GraphPad Prism.

[3] = biological target: T3, NET (Mus musculus, UniProt O55192); parameters: from tissue; host or cells: hippocampus of male SERT+/- mice; method as in earlier work; settings: known Kd from prior studies, used to calculate Ki; ref 20 (SI); read-out: Kd of hot ligand at NET; cited from earlier work
T3 sequence (O55192 whole entry): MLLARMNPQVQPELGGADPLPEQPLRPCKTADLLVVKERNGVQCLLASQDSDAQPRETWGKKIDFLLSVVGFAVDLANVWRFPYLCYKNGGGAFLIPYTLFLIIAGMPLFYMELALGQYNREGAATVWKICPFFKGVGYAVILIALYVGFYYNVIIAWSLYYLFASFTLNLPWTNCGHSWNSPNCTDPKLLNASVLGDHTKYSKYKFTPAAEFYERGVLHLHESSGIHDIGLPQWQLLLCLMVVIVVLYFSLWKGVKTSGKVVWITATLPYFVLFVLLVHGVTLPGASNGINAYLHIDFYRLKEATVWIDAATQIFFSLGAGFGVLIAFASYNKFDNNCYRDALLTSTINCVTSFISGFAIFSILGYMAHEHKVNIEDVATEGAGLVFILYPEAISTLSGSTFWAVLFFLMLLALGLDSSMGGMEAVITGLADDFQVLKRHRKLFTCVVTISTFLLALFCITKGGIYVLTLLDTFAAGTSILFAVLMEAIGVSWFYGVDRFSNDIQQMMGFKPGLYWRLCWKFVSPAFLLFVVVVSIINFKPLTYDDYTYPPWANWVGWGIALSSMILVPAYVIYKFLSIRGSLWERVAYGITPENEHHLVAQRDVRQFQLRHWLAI

[4] = tested on: OCT3+/+ and OCT3-/- mice; experiment: Sensitization of locomotor activity during CPP conditioning sessions; format: in vivo; settings: for Locomotor sensitization, first vs. 4th session Mean Difference: sexes pooled, ethanol 1 g/kg and/or cocaine […]
[5] = biological target: hDAT (Homo sapiens, UniProt Q01959); settings: 10 µM APP+
hDAT, sequence (Q01959 whole entry): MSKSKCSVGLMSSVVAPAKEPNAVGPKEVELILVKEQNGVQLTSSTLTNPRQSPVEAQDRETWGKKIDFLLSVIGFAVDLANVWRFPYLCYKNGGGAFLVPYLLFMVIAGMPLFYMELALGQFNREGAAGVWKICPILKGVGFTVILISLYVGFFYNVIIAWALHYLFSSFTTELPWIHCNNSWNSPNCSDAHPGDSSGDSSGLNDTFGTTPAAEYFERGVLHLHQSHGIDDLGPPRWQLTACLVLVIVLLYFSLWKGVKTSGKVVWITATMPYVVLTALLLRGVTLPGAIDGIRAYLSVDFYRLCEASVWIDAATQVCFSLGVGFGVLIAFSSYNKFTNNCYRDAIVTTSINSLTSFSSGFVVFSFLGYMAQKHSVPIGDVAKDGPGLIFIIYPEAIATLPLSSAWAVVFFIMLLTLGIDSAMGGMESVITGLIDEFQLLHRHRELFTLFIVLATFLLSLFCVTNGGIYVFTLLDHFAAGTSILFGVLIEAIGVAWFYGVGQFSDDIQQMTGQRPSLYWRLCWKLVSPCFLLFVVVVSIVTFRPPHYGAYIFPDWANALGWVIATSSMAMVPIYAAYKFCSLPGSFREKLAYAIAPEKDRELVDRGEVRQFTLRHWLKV

[6] = biological target: hSERT (Homo sapiens, UniProt P31645); settings: 10 µM cocaine, 10 µM APP+
hSERT, sequence (P31645 whole entry): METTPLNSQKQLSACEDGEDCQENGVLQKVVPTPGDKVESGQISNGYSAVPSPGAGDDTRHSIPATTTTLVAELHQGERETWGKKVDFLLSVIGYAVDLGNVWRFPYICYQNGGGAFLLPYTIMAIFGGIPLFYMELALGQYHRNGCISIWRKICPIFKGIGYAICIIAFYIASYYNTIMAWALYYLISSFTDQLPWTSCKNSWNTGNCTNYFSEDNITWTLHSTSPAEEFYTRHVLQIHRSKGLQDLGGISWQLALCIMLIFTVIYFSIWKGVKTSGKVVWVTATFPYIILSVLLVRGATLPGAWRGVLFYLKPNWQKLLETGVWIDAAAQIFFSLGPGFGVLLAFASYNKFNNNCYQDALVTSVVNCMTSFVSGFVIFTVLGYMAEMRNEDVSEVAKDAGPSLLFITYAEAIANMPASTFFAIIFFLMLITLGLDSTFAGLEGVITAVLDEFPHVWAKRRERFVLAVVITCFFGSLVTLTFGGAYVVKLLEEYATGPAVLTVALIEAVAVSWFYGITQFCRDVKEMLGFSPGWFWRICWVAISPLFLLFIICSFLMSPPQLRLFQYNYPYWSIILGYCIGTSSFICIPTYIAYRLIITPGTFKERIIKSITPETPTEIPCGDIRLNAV

[7] = biological target: T2, hOCT3; parameters: method as in PMID 29773909; settings: previously shown; cited from earlier work
[8] = tested on: OCT3; parameters: method as in PMID 29773909, PMID 16581093; settings: at concentrations lower than 100 µM; cited from earlier work
[9] = tested on: DA clearance in dorsal striatum; experiment: In vivo high-speed chronoamperometry of DA clearance in dorsal striatum; settings: for EC50, half maximally effective amount to inhibit DA clearance (T80) / Emax, maximal inhibition of DA clearance (percent increase in T80): 2 min post-intrastriatal application; for Emax, maximal inhibition of DA clearance (percent increase in T80): 4-parameter logistic fit; for percent change in T20-60 value from baseline / percent change in peak amplitude of DA signal from baseline: dorsal striatum, 2 minutes following administration, mean and SEM; for Effect on DA clearance time (T80): intrastriatal application, ethanol ~0.5-10 mM, cocaine 1-10 µM at recording site, 2 min after drug
[10] = biological target: T2, hOCT3; experiment: Real-time uptake of fluorescent substrate ASP+ in YFP-hOCT3 HEK293 cells; format: cell-based; settings: 3 µM ASP+
[11] = tested on: OCT3+/+ and OCT3-/- mice; experiment: Conditioned place preference (CPP); format: in vivo; settings: ethanol 1 g/kg + cocaine […] i.p.
Experimental: In the same procedure, sensitization of cocaine-induced locomotion (in the presence and absence of ethanol) was measured. Loss of righting reflex (LORR) was assessed as described previously [36].
For CPP and sensitization to the locomotor stimulant effects of these drugs, mice were injected i.p. with physiological saline, saline + EtOH (100 mg/kg), saline + cocaine (3.2 mg/kg), or EtOH (100 mg/kg) + cocaine (3.2 mg/kg) immediately prior to assay. […] For LORR behavioral assays, mice were injected i.p. with a sedative dose of EtOH, at 3.2 g/kg (base weight per kilogram body weight).
CPP. Conditioned place preference (CPP) in rodents, which is often used to model abuse-related drug effects, is shown by a preference for an environment previously paired with a drug compared with an environment previously paired with vehicle^31, 32. Mice were exposed to an unbiased, one-compartment place-conditioning procedure, with sessions conducted once per day (see^12, 13). […]
This analysis was followed with separate two-way ANOVAs to further probe sex*genotype and treatment*genotype interactions. […] There were no interaction or main effects of sex on sensitization, so male and female data were pooled for further analysis, in which effects of genotype and days were assessed separately for each drug treatment using two-way repeated measures ANOVA’s. […]

[12] = biological target: T3, NET; settings: ethanol 3.4 nM up to 1 M, hippocampal homogenates
Experimental: as §1
Tissue Collection and Preparation: Mice were humanely euthanized by cervical dislocation and decapitated without anesthesia to collect fresh brain tissues without compromising transporter binding properties. Striatum from each mouse were placed in a round 50 ml polycarbonate tube (Nalge Nunc, Rochester, NY, USA) containing 30 mM sodium phosphate and 0.32 M sucrose for DAT binding as in Reith and Coffey^16. […] All tissues were homogenized at 26,000 RPM for 1 min with a Polytron tissue homogenizer (Brinkman Instruments, Westbury, NY, USA). […] The supernate was discarded, and the pellet re-suspended in 25 ml buffer on ice using a Potter Elvehjem 10 ml glass and teflon homogenizer. The homogenate was re-centrifuged for 10 min at 36,000 x g. […]
as §3

[13] = biological target: SERT (Mus musculus, UniProt Q60857); settings: ethanol 3.4 nM up to 1 M, hippocampal homogenates
SERT, sequence (Q60857 whole entry): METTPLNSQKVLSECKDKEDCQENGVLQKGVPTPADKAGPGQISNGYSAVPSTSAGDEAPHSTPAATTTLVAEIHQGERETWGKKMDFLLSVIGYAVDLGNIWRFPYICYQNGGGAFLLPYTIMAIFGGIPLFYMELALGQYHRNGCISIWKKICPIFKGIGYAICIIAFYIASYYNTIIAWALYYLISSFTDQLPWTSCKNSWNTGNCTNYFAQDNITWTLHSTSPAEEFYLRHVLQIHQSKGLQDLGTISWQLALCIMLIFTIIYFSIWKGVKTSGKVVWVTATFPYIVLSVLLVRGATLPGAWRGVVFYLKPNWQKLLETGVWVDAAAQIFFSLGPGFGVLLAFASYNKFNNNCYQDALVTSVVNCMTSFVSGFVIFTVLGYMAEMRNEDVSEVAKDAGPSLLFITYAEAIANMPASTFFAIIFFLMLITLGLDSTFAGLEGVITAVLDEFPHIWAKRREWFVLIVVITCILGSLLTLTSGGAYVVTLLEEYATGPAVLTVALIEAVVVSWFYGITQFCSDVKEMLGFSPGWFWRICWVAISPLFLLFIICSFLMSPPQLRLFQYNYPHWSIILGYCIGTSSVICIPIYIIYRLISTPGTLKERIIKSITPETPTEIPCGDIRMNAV
Experimental: as §1, §2
Radioligand binding to SERT was performed on hippocampal homogenates according to the procedure of D’Amato et al.^19. […]
as §3

[14] = biological target: hNET (Homo sapiens, UniProt P23975)
hNET, sequence (P23975 whole entry): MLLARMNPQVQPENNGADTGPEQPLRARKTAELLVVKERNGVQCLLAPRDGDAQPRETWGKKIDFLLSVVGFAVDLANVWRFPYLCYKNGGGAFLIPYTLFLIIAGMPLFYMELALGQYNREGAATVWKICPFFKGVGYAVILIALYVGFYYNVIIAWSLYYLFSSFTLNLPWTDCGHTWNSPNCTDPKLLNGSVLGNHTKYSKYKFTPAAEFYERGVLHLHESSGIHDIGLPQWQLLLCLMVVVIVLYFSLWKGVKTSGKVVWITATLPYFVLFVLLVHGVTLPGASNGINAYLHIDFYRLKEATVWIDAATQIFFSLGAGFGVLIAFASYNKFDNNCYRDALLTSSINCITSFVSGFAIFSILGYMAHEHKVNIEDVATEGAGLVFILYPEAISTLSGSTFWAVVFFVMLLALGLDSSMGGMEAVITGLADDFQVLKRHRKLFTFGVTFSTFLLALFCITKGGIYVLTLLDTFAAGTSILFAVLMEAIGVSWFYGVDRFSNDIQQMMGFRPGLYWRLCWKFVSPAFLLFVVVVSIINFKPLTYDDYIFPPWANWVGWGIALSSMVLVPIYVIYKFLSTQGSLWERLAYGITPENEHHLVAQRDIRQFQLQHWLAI

[15] = rats, systemic administration of 1 mg/kg of ethanol (i.p.); cited from earlier work

T1 sequence (Q61327 whole entry): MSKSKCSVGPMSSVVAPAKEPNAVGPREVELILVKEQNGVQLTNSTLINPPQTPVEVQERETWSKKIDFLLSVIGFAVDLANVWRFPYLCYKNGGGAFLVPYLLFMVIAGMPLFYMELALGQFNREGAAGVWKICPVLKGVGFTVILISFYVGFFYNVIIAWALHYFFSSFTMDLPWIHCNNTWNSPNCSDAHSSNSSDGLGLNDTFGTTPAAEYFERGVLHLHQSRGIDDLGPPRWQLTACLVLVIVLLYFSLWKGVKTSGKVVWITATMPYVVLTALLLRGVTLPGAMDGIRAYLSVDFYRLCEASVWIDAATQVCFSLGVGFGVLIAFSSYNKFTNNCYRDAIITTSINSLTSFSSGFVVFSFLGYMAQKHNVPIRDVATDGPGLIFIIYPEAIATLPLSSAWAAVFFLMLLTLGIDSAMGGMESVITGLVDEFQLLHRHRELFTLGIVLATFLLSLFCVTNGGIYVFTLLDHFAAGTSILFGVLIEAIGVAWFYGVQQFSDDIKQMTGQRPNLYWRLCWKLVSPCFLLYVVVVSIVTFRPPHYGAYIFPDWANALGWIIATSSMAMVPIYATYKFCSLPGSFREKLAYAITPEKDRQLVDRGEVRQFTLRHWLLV

Fc1ccc(C(OCCN2CCN(CCCc3ccccc3)CC2)c2ccc(F)cc2)cc1 [GBR12909]
Ki ([1]; 2.7 nM [3H]WIN35,428, striatal homogenates, mean (95% CI), N = 3 mice, read-out: Ki for displacement of [3H]WIN35,428 binding to DAT): 0.001 µM

C[n+]1ccc(-c2ccccc2)cc1 [[^3H]MPP^+, 1-methyl-4-phenylpyridinium]
Km ([2]; used to determine Ki values, read-out: Km for uptake in OCT3 over-expressing cells): 1000 µM

CNCCC(Oc1ccccc1OC)c1ccccc1 (stereo not drawn) [[^3H]Nisoxetine]
Kd [3]: 0.0025 µM

COC(=O)[C@H]1[C@@H](c2ccc(F)cc2)C[C@@H]2CC[C@H]1N2C [[^3H]WIN35,428]
Kd ([1]; saturation assays on striatum of 5 C57BL/6J mice, used to calculate Ki, read-out: Kd of hot ligand at DAT): 0.0078 µM

COC(=O)[C@H]1[C@@H](OC(=O)c2ccccc2)C[C@@H]2CC[C@H]1N2C [cocaine]
Locomotor sensitization, first vs. 4th session Mean Difference ([4]; OCT3+/+ mice): -9.84
Locomotor sensitization, first vs. 4th session Mean Difference ([4]; OCT3-/- mice): -31.91
Block of APP+ uptake into hDAT HEK293 cells ([5]; 10 µM cocaine): blocked APP^+ uptake
Block of APP+ uptake into hSERT HEK293 cells [6]: blocked APP^+ uptake
Block of fluorescent substrate uptake in hOCT3 HEK293 cells [7]: does not block fluorescent substrate uptake
Activity at OCT3 [8]: does not have activity at OCT3
EC50, half maximally effective amount to inhibit DA clearance (T80) ([9]; OCT3+/+ mice): 35 ± 9 pmol
Emax, maximal inhibition of DA clearance (percent increase in T80) ([9]; OCT3+/+ mice): 150 ± 13%
percent change in T20-60 value from baseline ([9]; OCT3+/+ mice): 140 ± 8 (16)**/^† percent
percent change in peak amplitude of DA signal from baseline ([9]; OCT3+/+ mice): 109 ± 14 (16) percent
Effect on DA clearance time (T80) ([9]; OCT3+/+ mice): inhibited DA clearance
EC50, half maximally effective amount to inhibit DA clearance (T80) ([9]; OCT3-/- mice): 23 ± 16 pmol
Emax, maximal inhibition of DA clearance (percent increase in T80) ([9]; OCT3-/- mice): 154 ± 15%
percent change in T20-60 value from baseline ([9]; OCT3-/- mice): 148 ± 14 (15) percent
percent change in peak amplitude of DA signal from baseline ([9]; OCT3-/- mice): 106 ± 16 (15) percent
Effect on DA clearance time (T80) ([9]; OCT3-/- mice): inhibited DA clearance

C[C@]12C[C@H](O)[C@H]3[C@@H](CCC4=CC(=O)CC[C@@]43C)[C@@H]1CC[C@@H]2C(=O)CO [corticosterone]
Block of ASP+ uptake ([10]; 10 µM corticosterone): fully blocked uptake of ASP^+

CCO [ethanol]
Displacement of [3H]WIN35,428 binding to DAT ([1]; ethanol 3.4 nM up to 1 M, striatal homogenates): did not displace
Ki ([2]; hOCT3 HEK293 cells, N = 5 replicate assays in triplicate): 4200 ± 200 µM
Inhibition of ASP+ uptake ([10]; 30 mM ethanol, A.U.C. T80-150 s): ~ 50%
Block of ASP+ uptake ([10]; 100 mM ethanol): fully blocked uptake of ASP^+
Potentiation of CPP for cocaine by ethanol [11]: did not potentiate CPP for cocaine
Locomotor sensitization, first vs. 4th session Mean Difference ([4]; OCT3+/+ mice): −12.01
Sensitization of locomotor activity ([4]; ethanol alone, OCT3+/+ and OCT3-/- mice): no ethanol-induced sensitization
Displacement of [3H]nisoxetine binding to NET [12]: did not displace
Displacement of [3H]citalopram binding to SERT [13]: did not displace
Inhibition of APP+ uptake into hDAT HEK293 cells ([5]; highest ethanol concentration tested (100 mM)): only modestly inhibited uptake
Inhibition of APP+ uptake into hNET HEK293 cells [14]: only modestly inhibited uptake
Dialysate ethanol levels in the nucleus accumbens [15]: approximately 6 mM
percent change in T20-60 value from baseline ([9]; OCT3+/+ mice): 123 ± 8 (14) percent
percent change in peak amplitude of DA signal from baseline ([9]; OCT3+/+ mice): 80 ± 8 (14) percent
Effect on DA clearance time (T80) ([9]; OCT3+/+ mice): increased T80 DA clearance time
percent change in T20-60 value from baseline ([9]; OCT3-/- mice): 100 ± 6 (17)^###/$$ percent
percent change in peak amplitude of DA signal from baseline ([9]; OCT3-/- mice): 70 ± 8 (17) percent
Effect on DA clearance time (T80) ([9]; OCT3-/- mice): did not inhibit DA clearance
